Changes are numbered by the printed parent chain.
How the values were obtained:
Assay in all cases: α-Gal A activity in lysates of transfected HEK-293 cells ± migalastat (HEK assay)
Type in all cases: cell-based
[1] = biological target: T1, α-Gal A mutant form A160D (Homo sapiens, UniProt P06280, A160D)
T1 construct: expressed in transfected cells; host or cells: HEK-293
T1 sequence (P06280 32-429 A160D): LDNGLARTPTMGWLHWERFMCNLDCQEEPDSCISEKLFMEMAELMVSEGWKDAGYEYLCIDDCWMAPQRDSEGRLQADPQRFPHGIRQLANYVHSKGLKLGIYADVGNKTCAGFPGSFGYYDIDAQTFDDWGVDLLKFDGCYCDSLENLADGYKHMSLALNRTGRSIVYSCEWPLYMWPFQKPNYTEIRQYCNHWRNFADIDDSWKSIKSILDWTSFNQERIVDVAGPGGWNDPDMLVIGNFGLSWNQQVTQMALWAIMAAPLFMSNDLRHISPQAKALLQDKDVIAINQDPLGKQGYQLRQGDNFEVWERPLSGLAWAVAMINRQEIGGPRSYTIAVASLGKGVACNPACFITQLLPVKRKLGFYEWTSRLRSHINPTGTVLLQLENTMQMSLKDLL
Source text: (§1) Such mutations or variants are also referred to herein as “HEK assay amenable” mutations or variants.
(§2) The α-Gal A activity is expressed as the nmoles of free 4-MU released per milligram of protein per hour (nmol/mg/hr).

[2] = biological target: T2, α-Gal A mutant form D182G (Homo sapiens, UniProt P06280, D182G)
T2 construct: expressed in transfected cells; host or cells: HEK-293
T2 sequence (P06280 32-429 D182G): T1 sequence (P06280 32-429 A160D) with D129A, D151G
Source text: as §1, §2

[3] = biological target: T3, α-Gal A mutant form G271A (Homo sapiens, UniProt P06280, G271A)
T3 construct: expressed in transfected cells; host or cells: HEK-293
T3 sequence (P06280 32-429 G271A): T1 sequence (P06280 32-429 A160D) with D129A, G240A
Source text: as §1, §2

[4] = biological target: T4, α-Gal A mutant form I303T (Homo sapiens, UniProt P06280, I303T)
T4 construct: expressed in transfected cells; host or cells: HEK-293
T4 sequence (P06280 32-429 I303T): T1 sequence (P06280 32-429 A160D) with D129A, I272T
Source text: as §1, §2

[5] = biological target: T5, α-Gal A mutant form V124G (Homo sapiens, UniProt P06280, V124G)
T5 construct: expressed in transfected cells; host or cells: HEK-293
T5 sequence (P06280 32-429 V124G): T1 sequence (P06280 32-429 A160D) with V93G, D129A
Source text: as §1, §2

[6] = 10 μM migalastat minus baseline
[7] = HEK-293 lysates, 10 μM migalastat 5 days, mean ± SEM

OC[C@H]1NC[C@H](O)[C@@H](O)[C@H]1O [migalastat, (2R,3S,4R,5S)-2-(hydroxymethyl) piperdine-3,4,5-triol]
Absolute increase (% WT) [1, 6]: 25.9 % WT
Relative increase ([1]; 10 μM migalastat ÷ baseline): 1.83
10 μM migalastat α-Gal A activity [1, 7]: 18238 ± 1048 nmol/mg/h
10 μM migalastat α-Gal A activity (% WT) [1, 7]: 56 ± 4.1 % WT
Absolute increase (% WT) [2, 6]: 45.6 % WT
Relative increase ([2]; 10 μM migalastat ÷ baseline): 1.56
10 μM migalastat α-Gal A activity [2, 7]: 43772 ± 4156 nmol/mg/h
10 μM migalastat α-Gal A activity (% WT) [2, 7]: 129.6 ± 9.7 % WT
Absolute increase (% WT) [3, 6]: 34.4 % WT
Relative increase ([3]; 10 μM migalastat ÷ baseline): 3.87
10 μM migalastat α-Gal A activity [3, 7]: 18928 ± 1069 nmol/mg/h
10 μM migalastat α-Gal A activity (% WT) [3, 7]: 46.4 ± 1.8 % WT
Absolute increase (% WT) ([4]; 10 μM migalastat minus baseline, baseline BLD): 7.3 % WT
10 μM migalastat α-Gal A activity (% WT) ([4]; HEK-293 lysates, 10 μM migalastat 5 days, mean ± SEM, baseline BLD): 7.3 ± 1.4 % WT
10 μM migalastat α-Gal A activity ([4]; HEK-293 lysates, 10 μM migalastat 5 days, mean ± SEM, baseline BLD (<142 nmol/mg/hr)): 2809 ± 520 nmol/mg/h
Absolute increase (% WT) [5, 6]: 6.4 % WT
10 μM migalastat α-Gal A activity [5, 7]: 4316 ± 432 nmol/mg/h
10 μM migalastat α-Gal A activity (% WT) [5, 7]: 10.7 ± 1^ % WT

Source: patent US20230136297A1, “Methods Of Treating Fabry Disease In Patients Having A Mutation In The GLA Gene” (Amicus Therapeutics, Inc., priority 2020, published 2023)
